The values that follow come from ChEMBL document CHEMBL5346969 (J Med Chem, 2023).

pIC50: −log10 of the molar value. Activity calls are given as the source filed them. The calls are words filed in the database; no cut-off is given here.

One data set has as its system BT-549. Description: Antiproliferative activity against human BT-549 cells assessed as inhibition of cell viability at 1 uM incubated for 72 hrs by MTT assay. The format is functional, cell-based.
Data set [1] can be described thus: Toxicity in immunodeficient BALB/c mouse assessed as bone marrow suppression by measuring HGB level at 20 mg/kg, ip for 14 days by whole blood analysis. The format is organism-based. Particulars: in vivo, 336 h, time 14 day.
Data set [2] concerns MDA-MB-231. Description: Induction of ferroptosis-mediated morphological changes in human MDA-MB-231 cells assessed as change in nuclear morphology at 20 nM incubated for 6 hrs by TEM analysis. The data set is classed as functional, cell-based.
Data set [3] has as its system MDA-MB-231. Kind of data set: Induction of ferroptosis in human MDA-MB-231 cells assessed as cell viability incubated for 72 hrs in presence of necrosis inhibitor, necrostatin-1 by MTT assay. The format is functional, cell-based. Particulars: MDA-MB-231, 72 h.
In data set [4] the test system is MDA-MB-231. Description: Induction of ferroptosis in human MDA-MB-231 cells assessed as cell viability at 1 uM incubated for 72 hrs in presence of glutathione by MTT assay. The data set is classed as functional, cell-based. On the technique in general: Tetrazolium assays rely on reduction of a dye to a coloured formazan, in cell work by metabolically active cells.

The nature of data set [5]: Metabolic stability in human liver microsomes assessed as half life at 1 uM incubated upto 60 mins in presence of NADPH by LC-MS/MS analysis. The data set is classed as ADME, Microsome. A general note: Liver microsomes are vesicles of endoplasmic reticulum, rich in cytochrome P450 enzymes.
The subject of data set [6] is MDA-MB-231. Description: Induction of ferroptosis in human MDA-MB-231 cells assessed as cell viability incubated for 72 hrs in presence of N-acetyl-L-cysteine by MTT assay. The data set is classed as functional, cell-based. Particulars: MDA-MB-231, 72 h.
For data set [7], the system named is MDA-MB-231. Kind of data set: Induction of ferroptosis in human MDA-MB-231 cells with assessed as change in GPX4 mRNA expression level at 5 to 20 nM incubated for 8 hrs by qRT-PCR analysis. Particulars: dose 5-20 nM. The format is functional, cell-based. A general note: Real-time PCR tracks product formation cycle by cycle.
Another data set relates to HeLa. Description: Antiproliferative activity against human HeLa cells assessed as inhibition of cell viability at 1 uM incubated for 72 hrs by MTT assay. The format is functional, cell-based.
In data set [8] the test system is MDA-MB-231. Kind of data set: Induction of ferroptosis in human MDA-MB-231 cells assessed as cell viability incubated for 72 hrs in presence of glutathione by MTT assay. The data set is classed as functional, cell-based. Particulars: MDA-MB-231, 72 h.
Data set [9] can be described thus: Toxicity in immunodeficient BALB/c mouse assessed as change in CREA level at 20 mg/kg, ip for 14 days by biochemical analysis. The format is organism-based. Particulars: in vivo, 336 h, time 14 day.
The test system of data set [10] is MDA-MB-231. Kind of data set: Induction of ferroptosis in human MDA-MB-231 cells assessed as cell viability at 1 uM incubated for 72 hrs in presence of N-acetyl-L-cysteine by MTT assay. The data set is classed as functional, cell-based.
Data set [11] is described as follows: Metabolic stability in rat plasma at 1 uM and measured upto 24 hrs by LC-MS/MS analysis. The format is ADME, cell-free.
For data set [12], the system named is MDA-MB-231. Kind of data set: Induction of ferroptosis in human MDA-MB-231 cells with assessed as change in ACSL4 protein expression level at 5 to 20 nM incubated for 8 hrs in presence of ferroptosis inhibitor, ferrostatin-1 by Western blot analysis. The format is functional, cell-based. Particulars: dose 5-20 nM.
Data set [13] relates to MDA-MB-231. Kind of data set: Antitumor activity against human MDA-MB-231 cells xenografted in immunodeficient BALB/c mouse assessed as tumor growth inhibition at 10 mg/kg,ip for 21 days consecutively every day. The format is functional. Particulars: MDA-MB-231, 504 h, time 21 day, read-out: TGI.
Data set [14] in a line: Toxicity in immunodeficient BALB/c mouse assessed as bone marrow suppression by measuring RBC level at 20 mg/kg, ip for 14 days by whole blood analysis. The data set is classed as organism-based, Erythrocyte. Particulars: in vivo, 336 h, time 14 day.
Another data set has as its system K562. Kind of data set: Antiproliferative activity against human K562 cells assessed as inhibition of cell viability at 1 uM incubated for 72 hrs by MTT assay. The data set is classed as functional, cell-based.
A short description of data set [15]: Toxicity in immunodeficient BALB/c mouse assessed as bone marrow suppression by measuring WBC level at 20 mg/kg, ip for 14 days by whole blood analysis. Particulars: in vivo, 336 h, time 14 day. The data set is classed as organism-based.
The target in data set [16] is T1, Phospholipid hydroperoxide glutathione peroxidase GPX4 (Homo sapiens) (UniProt P36969).
T1 sequence (whole entry): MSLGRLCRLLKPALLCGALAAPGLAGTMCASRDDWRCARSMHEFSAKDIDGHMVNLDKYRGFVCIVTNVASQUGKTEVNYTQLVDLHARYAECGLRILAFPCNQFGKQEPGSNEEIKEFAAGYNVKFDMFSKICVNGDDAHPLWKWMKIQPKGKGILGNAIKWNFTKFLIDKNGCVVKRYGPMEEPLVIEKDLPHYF
Description: Binding affinity to GPX4 (unknown origin) at Cys66 residue assessed as change in mass of single charged b5+ ion at 100 uM incubated for 1.5 hrs by SDS-PAGE based LC-MS/MS analysis.

Data set [17] addresses T1, Phospholipid hydroperoxide glutathione peroxidase GPX4 (Homo sapiens). Kind of data set: Binding affinity to GPX4 (unknown origin) at Cys66 residue assessed as change in mass of single charged y6+ ion at 100 uM incubated for 1.5 hrs by SDS-PAGE based LC-MS/MS analysis.
For data set [18] the target is unchanged. Description: Binding affinity to GPX4 (unknown origin) at Cys66 residue assessed as change in mass of single charged y4+ ion at 100 uM incubated for 1.5 hrs by SDS-PAGE based LC-MS/MS analysis.
Data set [19] can be described thus: MRT(t) in rat at 10 mg/kg, ip and measured upto 24 hrs by LC-MS/MS analysis. The format is ADME, organism-based. Particulars: in vivo.
For data set [20], the system named is MDA-MB-231. Description: Induction of ferroptosis in siRNA mediated GPX4 knockdown human MDA-MB-231 cells with assessed as change in GPX4 protein expression level at 20 nM incubated for 8 hrs by Western blot analysis. The data set is classed as functional, cell-based.
A short description of data set [21]: Acute toxicity in ICR mouse assessed as lethality at 200 to 488 mg/kg,ip and measured after 14 days. The format is organism-based. Particulars: in vivo, dose 200-488 mg/kg, time 14 day.
Data set [22] relates to MDA-MB-231. Description: Induction of ferroptosis in siRNA mediated GPX4 knockdown human MDA-MB-231 cells with assessed as change in xCT protein expression level at 20 nM incubated for 8 hrs by Western blot analysis. The data set is classed as functional, cell-based.
Data set [23] deals with MDA-MB-231. Kind of data set: Induction of ferroptosis in siRNA mediated GPX4 knockdown human MDA-MB-231 cells with assessed as cell viability at 10 nM incubated for 10 hrs by MTT assay. The data set is classed as functional, cell-based.
The target in data set [24] is T1, Phospholipid hydroperoxide glutathione peroxidase GPX4 (Homo sapiens). Description: Binding affinity to GPX4 in human MDA-MB-231 cells assessed as decrease in apprent aggregation temperature at 1 uM incubated for 2 hrs by CESTA analysis (Rvb=58.3 +/- 0.7 degreeC). The format is cell-based.
A short description of data set [25]: AUCt in rat at 10 mg/kg, ip and measured upto 24 hrs by LC-MS/MS analysis. The arrangement: dose 10 mg/kg, time < 24 hrs, route ip. The data set is classed as ADME, organism-based. Particulars: in vivo.
In data set [26] the test system is MDA-MB-231. Description: Induction of ferroptosis in human MDA-MB-231 cells with assessed as reduction in cell viability at 5 to 20 nM incubated for 4 to 10 hrs by MTT assay. The format is functional, cell-based. Particulars: dose 5-20 nM, time 4-10 hrs.
For data set [27], the system named is MDA-MB-231. Kind of data set: Induction of ferroptosis in human MDA-MB-231 cells with assessed as upregulation of GPX4 protein expression level at 5 to 20 nM incubated for <6 hrs by Western blot analysis. The format is functional, cell-based. Particulars: dose 5-20 nM.
Data set [28] is described as follows: Tmax in rat at 10 mg/kg, ip and measured upto 24 hrs by LC-MS/MS analysis. The format is ADME, organism-based. Particulars: in vivo.
Data set [29] in a line: Half life in rat at 10 mg/kg, ip and measured upto 24 hrs by LC-MS/MS analysis. The data set is classed as ADME, organism-based. Particulars: in vivo.
For data set [30], the system named is MDA-MB-231. Kind of data set: Induction of ferroptosis in siRNA mediated GPX4 knockdown human MDA-MB-231 cells with assessed as change in ACSL4 protein expression level at 20 nM incubated for 8 hrs by Western blot analysis. The data set is classed as functional, cell-based.

The pIC50 is −log10 of the IC50, conventionally taken in molar units. The term half-life denotes the time in which the quantity being followed falls by half. For `COc1cc(N(C(=O)CBr)c2ccc3c(c2)OCCO3)cc(OC)c1F`, the result in the data set on BT-549, in the data set on MDA-MB-231 [4] and in the data set with MDA-MB-231 [10] was Active. The Activity result in [1], in data set [9], in data set [14] and in data set [15] was “Toxic” in each case. Moreover, the result with MDA-MB-231 [2], with MDA-MB-231 [7], in the data set on HeLa, in the data set with MDA-MB-231 [12] and with K562 was inactive. In addition, the figures for the pIC50 in the data set on MDA-MB-231 [3], with MDA-MB-231 [6] and in the data set on MDA-MB-231 [8] were 7.60, less than 4.70 and less than 4.70, respectively. Also, in data set [5], the half-life at 1 µM was 0.79 min. Further, in data set [11], the Stability entry is given as “Stable”. The inhibition in vivo at 10 mg/kg with MDA-MB-231 [13] is 47.9%.

Usually MRT last stands for a mean duration of stay, worked out from the concentration-time curve. Broadly, the LD50 is the dose expected to kill half of the subjects tested. For orientation: Tmax means the time from dosing to the highest level. For `COc1cc(N(C(=O)CCl)c2ccc3c(c2)OCCO3)cc(OC)c1F`, the result (in data set [16]; in [17]; in [18]; with MDA-MB-231 [2]; with MDA-MB-231 [20]; in the data set on MDA-MB-231 [22]) was inactive. Further, the outcome with MDA-MB-231 [23], with MDA-MB-231 [7], in the data set with HeLa, with MDA-MB-231 [12], in the data set with MDA-MB-231 [30] and in the data set with K562 was inactive. Besides, the result in the data set with BT-549, in the data set on MDA-MB-231 [4], in the data set with MDA-MB-231 [10] and in the data set with MDA-MB-231 [27] was Active. The pIC50 was 7.66 in the data set with MDA-MB-231 [3], less than 4.70 in the data set on MDA-MB-231 [6] and less than 4.70 in the data set with MDA-MB-231 [8]. This compound came in with a mean residence time (MRT last) at 24 h in [19] of 103 min. Further, in [21], the 50% lethal dose (LD50) at 336 h turned out to be 338 mg/kg. In [5], the half-life at 1 µM worked out at 3.34 min. The T in data set [24] is 51.8 °C. In data set [25], this compound yielded an AUCt of 12100 ng·h/mL. In addition, the Activity result is “Toxic” in data set [9] and “Dose-Dependent Effect” in the data set with MDA-MB-231 [26]. Moreover, the Stability result in data set [11] is given as “Stable”. In the data set on MDA-MB-231 [13], the inhibition in vivo at 10 mg/kg turned out to be 73.1%. For the same compound, the Tmax in [28] was 51 min. The same compound had a t1/2 in data set [29] of 114 min.
